Laboratory results published in PMC7576608, “Mechanisms of telomerase inhibition by oxidized and therapeutic dNTPs” (Nature Communications, 2020).
Where “and” joins values, the source holds several entries; their conditions need not be identical. Identical values can stand only once. One block for each compound: values may come before it.

Columns and labels:
telomerase [1] = target: T1, telomerase (Homo sapiens, UniProt O14746); experiment: Telomerase repeat processivity IC50: modified dNTP titrated into reactions with all four natural dNTPs; assay type: biochemical; design: made in house; anti-FLAG immunopurification, eluted with 3xFLAG peptide; settings: for Slope (line fit of ln(100-%LB) vs # telomere repeats) / YIntercept (line fit of ln(100-%LB) vs # telomere repeats): replicates n1, n2; for ln(100-%LB): n1, n2
T1 sequence (O14746 whole entry): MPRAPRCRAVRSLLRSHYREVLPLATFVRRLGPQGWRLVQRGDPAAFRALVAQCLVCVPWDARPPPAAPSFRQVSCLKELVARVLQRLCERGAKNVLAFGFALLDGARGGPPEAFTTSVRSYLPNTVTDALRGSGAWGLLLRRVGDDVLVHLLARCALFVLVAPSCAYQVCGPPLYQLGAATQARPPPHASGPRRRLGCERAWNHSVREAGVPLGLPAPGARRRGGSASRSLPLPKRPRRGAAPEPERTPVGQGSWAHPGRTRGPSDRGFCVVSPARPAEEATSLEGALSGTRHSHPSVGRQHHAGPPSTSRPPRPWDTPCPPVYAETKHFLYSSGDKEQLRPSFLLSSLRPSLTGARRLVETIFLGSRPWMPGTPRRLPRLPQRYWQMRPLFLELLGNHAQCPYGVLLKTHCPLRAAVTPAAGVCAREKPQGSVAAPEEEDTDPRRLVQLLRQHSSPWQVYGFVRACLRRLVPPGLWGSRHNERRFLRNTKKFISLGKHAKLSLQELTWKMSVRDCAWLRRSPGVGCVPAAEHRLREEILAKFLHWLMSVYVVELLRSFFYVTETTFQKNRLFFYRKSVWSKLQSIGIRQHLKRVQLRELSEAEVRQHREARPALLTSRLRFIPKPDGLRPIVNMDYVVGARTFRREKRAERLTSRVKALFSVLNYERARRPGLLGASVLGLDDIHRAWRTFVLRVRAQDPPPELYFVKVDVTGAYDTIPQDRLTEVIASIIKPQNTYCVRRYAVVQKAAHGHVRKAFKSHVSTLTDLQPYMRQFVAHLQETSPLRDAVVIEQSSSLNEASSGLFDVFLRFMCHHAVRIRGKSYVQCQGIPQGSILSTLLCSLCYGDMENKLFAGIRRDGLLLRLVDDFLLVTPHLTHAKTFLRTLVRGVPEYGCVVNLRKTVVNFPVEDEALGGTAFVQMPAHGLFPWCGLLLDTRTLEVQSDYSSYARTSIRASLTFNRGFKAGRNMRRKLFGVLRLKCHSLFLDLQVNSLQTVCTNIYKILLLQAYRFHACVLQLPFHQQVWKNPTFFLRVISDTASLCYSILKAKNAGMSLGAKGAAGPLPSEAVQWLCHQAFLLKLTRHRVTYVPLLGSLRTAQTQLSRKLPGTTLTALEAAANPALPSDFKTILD
Description: In order to better understand the ability of modified dNTPs to compete with natural dNTPs for telomerase utilization, we added modified dNTPs to reactions containing all four natural dNTPs. […] The calculated IC50 determines the concentration required to reduce repeat processivity in the bulk reactions by half. However, it is important to note that bulk experiments cannot distinguish effects on individual telomeres, since extended telomeres mask unextended telomeres. Incorporation of a chain terminator during any step will terminate extension of the affected telomere, and just five critically short telomeres are sufficient to trigger senescence. Therefore, repeat processivity IC50 values are not necessarily an indicator of the inhibitory potency, but provide information on selectivity for modified dNTPs compared to natural dNTPs. […] The ability to purify sufficient quantities of tcTERT enables characterization of the catalytic nucleotide addition by pre-steady-state single turnover kinetics using a defined DNA–RNA primer–template substrate. The catalytic efficiency of incorporating a single dNTP is measured by dividing the observed nucleotide incorporation rate constant, kpol, by the equilibrium dissociation constant for dNTP binding to the tcTERT–primer–template complex (Kd)[44].
(§1) The reactions were started by the addition of 3 μl of immunopurified telomerase eluent, incubated at 37 °C for 1 h, then terminated with 2 μl of 0.5 mM EDTA and heat inactivated at 65 °C for 20 min. An equal volume of loading buffer (94% formamide, 0.1× TBE, 0.1% bromophenol blue, 0.1% xylene cyanol) was added to the reaction eluent. The samples were heat denatured for 10 min at 100 °C and loaded onto a 14% denaturing acrylamide gel (7 M urea, 1× TBE) and electrophoresed for 90 min at constant 38 W. Samples were imaged using a Typhoon phosphorimager (GE Healthcare). Percent primer extension was calculated with ImageQuant TL 8.2 by measuring the intensity of each product band and dividing by the total radioactivity in the lane or total products, as indicated in the figure legends.
The processivity was calculated as described[40],[67]. Repeat processivity from the direct telomerase extension assays was calculated as R1/2 (equivalent to the half-time for decay in an exponential time course), which represents the median length of DNA product formed, expressed in terms of number of telomere repeats. First, the total volume counts for each product band extend by one or more telomere repeats were obtained using Image Quant TL. The volume counts were then normalized by dividing by the number of radiolabeled guanosines incorporated into the extended products based on the number of repeats added, termed corrected volume (corr vol). The “percent left behind” (%LB) was calculated for each product band by summing the counts for that product band and for every product band below (shorter products), divided by the total counts for the lane, and then multiplied by 100. The natural log of (100−%LB) was calculated and then plotted vs. repeat number for each product length. A linear regression line was fit to the data to determine the slope of the line. The R1/2 value was calculated by dividing −ln(2) by the slope of each fitted line (R1/2 = −ln(2)/slope).
Supplementary Fig 8. IC50 values for telomerase processivity inhibition. Telomerase reactions were conducted with cellular relevant concentrations of all four natural dNTPs and increasing concentrations of the modified dNTP analog from 0 to 10,000 μM to calculate. (a) The natural log of (100-%LB) was plotted vs repeat number. A straight line was fit to the data and the R1/2 value was calculated by dividing –ln(2) by the slope of each line. Plots shown from one experiment are […]

telomerase [2] = target: T1, telomerase; experiment: Telomerase extension of 32P-end labeled primers with a single dNTP (percent primer extension); assay type: biochemical; design: made in house; anti-FLAG immunopurification, eluted with 3xFLAG peptide; settings: for Percent Primer Extension: 50 μM single dNTP
Procedure: A chain terminating mechanism of inhibition requires that the enzyme adds the modified dNTP to a growing chain, which then blocks further synthesis. […] To test whether telomerase can incorporate other modified dNTPs, and whether the incorporation is chain terminating and/or mutagenic, we conducted direct extension assays in which we radiolabeled the primer and added increasing concentrations (5, 50, and 500 μM) of a single dNTP (Supplementary Figs. 3, 5, 6, and 7). Since modified dNTPs may prefer mispairing, we tested various primers in which the first template base was either rA3, rC1, or rU5 (primer 1, primer 2, and primer 3, respectively), and compared the percent primer extension for each dNTP at the middle 50 μM concentration (Fig. 3). Primers 1 and 2 initiate synthesis at consecutive rA3rA4 or rC1rC2 template bases, respectively, so we could examine both incorporation and extension to the next base. However, the telomerase template lacks tandem rU residues.
Fig. 3 Telomerase insertion of modified dNTPs. Telomerase reactions were conducted with 5 nM ^32P-end labeled primer a Primer 1 (TTAGGG)3, b Primer 2 (GGTTAG)3, or c Primer 3 (AGGGTT)3. Reactions contained cellular-concentration dNTPs (lane 1) or 50 μM of indicated natural dNTP (blue, lanes 2–5), oxidized dNTP (red, lanes 6–8), or therapeutic dNTP (green, lanes 9–11). Products were separated on denaturing gels. […] Letters on the right indicate the template base; P indicates unextended 18-mer primer. Graphs represent the percent of total primers extended. Images are representative of, and data are shown as mean ± s.d. from, three independent experiments. Source data are provided as a Source Data file.
as §1, with “An” for “The reactions were started by the addition of 3 μl of immunopurified telomerase eluent, incubated at 37 °C for 1 h, then terminated with 2 μl of 0.5 mM EDTA and heat inactivated at 65 °C for 20 min. An”
Telomerase reactions were conducted with 5 nM 32P-end labeled primer (a) Primer 1 (TTAGGG)3, (b) Primer 2 (GGTTAG)3, or (c and d) Primer 3 […]
(d) reactions contained 3 µg/µl RNase A. Products were separated on denaturing gels. Letters on the right indicate the template base; P indicates unextended 18-mer primer. Graphs represent the percent of total primers extended for the reactions in panels a – c from one experiment. Panel d is a representative image from three independent experiments. Source data are provided as a Source Data file. […]
Supplementary Fig 4. Time course reactions with telomerase or pol β. (a, b) Telomerase reactions were conducted with 5 nM 32P-end labeled primer (a) Primer 4 (GTTAGG)3 or (b) Primer 2 (GGTTAG)3.
Products were separated on denaturing gels. Letters on the right indicate the template base; P indicates […]
unextended 18-mer primer. […]

Slope (line fit of ln(100-%LB) vs # telomere repeats) (telomerase [1]; 8μM): -0.35 and -0.41
YIntercept (line fit of ln(100-%LB) vs # telomere repeats) (telomerase [1]; 8μM): 3.32 and 3.48
ln(100-%LB) (telomerase [1]; 8μM, telomere repeat 1): 3.55 and 3.46
ln(100-%LB) (telomerase [1]; 8μM, telomere repeat 2): 2.86 and 2.72
ln(100-%LB) (telomerase [1]; 8μM, telomere repeat 3): 2.16 and 1.97
ln(100-%LB) (telomerase [1]; 8μM, telomere repeat 4): 1.81 and 1.63
ln(100-%LB) (telomerase [1]; 8μM, telomere repeat 5): 1.46 and 1.29
ln(100-%LB) (telomerase [1]; 8μM, telomere repeat 6): 1.02 and 0.87
ln(100-%LB) (telomerase [1]; 8μM, telomere repeat 7): 0.66 and 0.48
ln(100-%LB) (telomerase [1]; 8μM, telomere repeat 8): 0.32 and 0.21
Slope (line fit of ln(100-%LB) vs # telomere repeats) (telomerase [1]; 32μM): -0.51 and -0.43
YIntercept (line fit of ln(100-%LB) vs # telomere repeats) (telomerase [1]; 32μM): 3.76 and 3.36
ln(100-%LB) (telomerase [1]; 32μM, telomere repeat 1): 3.48 and 3.40
ln(100-%LB) (telomerase [1]; 32μM, telomere repeat 2): 2.72 and 2.60
ln(100-%LB) (telomerase [1]; 32μM, telomere repeat 3): 1.91 and 1.78
ln(100-%LB) (telomerase [1]; 32μM, telomere repeat 4): 1.53 and 1.42
ln(100-%LB) (telomerase [1]; 32μM, telomere repeat 5): 1.15 and 1.06
ln(100-%LB) (telomerase [1]; 32μM, telomere repeat 6): 0.66
ln(100-%LB) (telomerase [1]; 32μM, telomere repeat 7): 0.23 and 0.18
Slope (line fit of ln(100-%LB) vs # telomere repeats) (telomerase [1]; 500μM): -1.08 and -0.93
YIntercept (line fit of ln(100-%LB) vs # telomere repeats) (telomerase [1]; 500μM): 4.06 and 3.77
ln(100-%LB) (telomerase [1]; 500μM, telomere repeat 1): 3.07 and 3.05
ln(100-%LB) (telomerase [1]; 500μM, telomere repeat 2): 1.89 and 1.90
ln(100-%LB) (telomerase [1]; 500μM, telomere repeat 3): 0.66 and 0.65
Slope (line fit of ln(100-%LB) vs # telomere repeats) (telomerase [1]; 1000μM): -1.14 and -1.23
YIntercept (line fit of ln(100-%LB) vs # telomere repeats) (telomerase [1]; 1000μM): 4.20 and 4.38
ln(100-%LB) (telomerase [1]; 1000μM, telomere repeat 1): 3.08 and 3.19
ln(100-%LB) (telomerase [1]; 1000μM, telomere repeat 2): 1.90 and 1.97
ln(100-%LB) (telomerase [1]; 1000μM, telomere repeat 3): 0.69 and 0.55
Slope (line fit of ln(100-%LB) vs # telomere repeats) (telomerase [1]; 2000μM): -1.39 and -1.63
YIntercept (line fit of ln(100-%LB) vs # telomere repeats) (telomerase [1]; 2000μM): 4.11 and 4.80
ln(100-%LB) (telomerase [1]; 2000μM, telomere repeat 1): 2.72 and 3.17
ln(100-%LB) (telomerase [1]; 2000μM, telomere repeat 2): 1.32 and 1.54
Compound: Cc1cn(C2CC(N=[N+]=[N-])C(COP(=O)(O)OP(=O)(O)OP(=O)(O)O)O2)c(=O)[nH]c1=O (stereo not drawn) [AZ-TP]

% Primer Extension (telomerase [2]; Primer 1, 5µM dNTP): 6.28%
% Primer Extension (telomerase [2]; Primer 1, 50µM dNTP): 12.17%
% Primer Extension (telomerase [2]; Primer 1, 500µM dNTP): 12.98%
% Primer Extension (telomerase [2]; Primer 2, 5µM dNTP): 0%
% Primer Extension (telomerase [2]; Primer 2, 50µM dNTP): 0%
% Primer Extension (telomerase [2]; Primer 2, 500µM dNTP): 0%
% Primer Extension (telomerase [2]; Primer 3, 5µM dNTP): 0%
% Primer Extension (telomerase [2]; Primer 3, 50µM dNTP): 3.43%
% Primer Extension (telomerase [2]; Primer 3, 500µM dNTP): 4.38%
Compound: Cc1cn([C@H]2C[C@H](N=[N+]=[N-])[C@@H](CO)O2)c(=O)[nH]c1=O [AZT]

Percent Primer Extension (telomerase [2]; Primer 1 (TTAGGG)3, first template base rA3, Mean of three experiments): 5.85%
Percent Primer Extension (telomerase [2]; Primer 1 (TTAGGG)3, first template base rA3, single experiments n1-n3, listed as dC): 5.75% and 3.98% and 7.81%
% Primer Extension (telomerase [2]; Primer 1, 5µM dNTP): 4.15%
% Primer Extension (telomerase [2]; Primer 1, 50µM dNTP): 7.81%
% Primer Extension (telomerase [2]; Primer 1, 500µM dNTP): 8.06%
Percent Primer Extension (telomerase [2]; Primer 2 (GGTTAG)3, first template base rC1, Mean of three experiments): 0.00%
Percent Primer Extension (telomerase [2]; Primer 2 (GGTTAG)3, first template base rC1, single experiments n1-n3): 0.00%
% Primer Extension (telomerase [2]; Primer 2, 5µM dNTP): 0.00%
% Primer Extension (telomerase [2]; Primer 2, 50µM dNTP): 0.00%
% Primer Extension (telomerase [2]; Primer 2, 500µM dNTP): 0.00%
Percent Primer Extension (telomerase [2]; Primer 3 (AGGGTT)3, first template base rU5, Mean of three experiments): 0.00%
Percent Primer Extension (telomerase [2]; Primer 3 (AGGGTT)3, first template base rU5, single experiments n1-n3): 0.00%
% Primer Extension (telomerase [2]; Primer 3, 5µM dNTP): 0.00%
% Primer Extension (telomerase [2]; Primer 3, 50µM dNTP): 0.00%
% Primer Extension (telomerase [2]; Primer 3, 500µM dNTP): 0.00%
Compound: Nc1ccn([C@H]2C[C@H](O)[C@@H](COP(=O)(O)OP(=O)(O)OP(=O)(O)O)O2)c(=O)n1 [dCTP]
